Experimental data taken from patent US12156889B2, “Methods of administering mesenchymal stem cells activated by cytokines for enhancing immunosuppression” (Rutgers, The State University of New Jersey, priority 2012, dated 2024).

Tests used:
[1] = tested on: peripheral blood mononuclear cell; assay: Peripheral blood mononuclear cell proliferation with human MSCs; assay type: cell-based; settings: side-by-side comparison mouse and human MSCs
Method: In the present study, with T cell activation or when exogenous inflammatory cytokines are added, the T cells first enter cell cycle arrest and then die within 24 hours. It was also observed that this apoptosis was dependent on NO, since T cell apoptosis was not observed when iNOS inhibitors were used. Apoptosis was also absent when iNOS^−/− or IFNγ R1^−/− MSCs were used. Therefore, NO-induced cell cycle arrest and apoptosis of T cells are part of the mechanism of immunosuppression mediated by inflammatory cytokine-activated MSCs. Differences between species in inflammatory cytokine-induced expression of iNOS has been noted in macrophages (Schneemann & Schoedon. 2002) Nat. Immunol. 3(2):102). […] Thus, the roles of IDO and NO in the inhibition of T cell proliferation by MSCs from mouse and human were analyzed in a side-by-side comparison.

splenocytes = assay: Anti-CD3-activated splenocyte proliferation in co-culture with MSCs; assay type: cell-based, mouse; settings: for effect on immunosuppression by MSCs: indomethacin 10 μM, anti-IL-10 20 μg/ml, anti-TGFβ 20 μg/ml, 1-MT 1 mM; for splenocyte proliferation in MSC co-culture with iNOS inhibitor: MSCs + splenocytes + anti-CD3
Method: FIGS. 9A, 9B, 9C, 9D, 9E, 9F and 9G. […] Cloned MSCs were first treated with the indicated combinations of recombinant cytokines IFNγ, TNFα, IL-17A (2 ng/ml each) for 12 hr, then cocultured with CD4^+ T cell blasts at a 1:20 ratio (MSC:T cells), and proliferation was assessed by 3H-thymidine incorporation after an additional 12 hr. (FIG. 9B). The mRNA expression of IL-17 receptor family members in MSCs or Raw 264.7 (Macrophages) were examined by RT-PCR. NC: No RT. (FIG. 9C). Surface expression of IL-17RA was detected by immunofluoresence or flow cytometry in cloned MSCs. (FIGS. 9D and 9E). MSCs were first treated with IFNγ and TNFα with or without IL-17A (10 ng/ml), IFNγ and TNFα were supplemented at different cytokine concentrations, for 12 hr, and then cocultured with CD4^+ T cell blasts (FIG. 9D) or T cell hybridoma A1.1 cells (FIG. 9E) at a ratio of 1:20 for 12 hr. T cell proliferation was measured by 3H-Tdr incorporation. (FIG. 9F). MSCs were first treated with IFNγ and TNFα (2 ng/ml) with graded concentrations of IL-17A, for 12 hr, and then cocultured with T cell hybridoma A1.1 cells at a ratio of 1:10 for 12 hr. T cell proliferation was measured by 3H-thymidine incorporation. (FIG. 9G). MSCs were cocultured with fresh C57BL/6 splenocytes plus anti-CD3, anti-CD28, and antibodies against IL-17A, at a 1:20 or 1:40 ratio (MSCs:splenocytes), for 48 hr, and then cell proliferation was assessed by 3H-thymidine incorporation. Proliferation values represent means±SEM of three wells from a representative of three experiments.
To examine the possibility that cytokines induce the immunosuppressive capacity of MSCs, these culture conditions were reproduced by combining MSCs and fresh splenocytes at graded ratios in the presence of anti-CD3. […] The immunosuppressive capacity of MSC clones generated from different mouse strains was also examined.
To identify the mechanism through which immunosuppression by cytokine-exposed MSCs is effected, the response of anti-CD3-activated splenocytes co-cultured with MSCs (1:20, MSC:splenocytes) in a […] system was examined in various configurations.
Nitric oxide (NO) at high concentrations is known to inhibit T cell responses. It diffuses quickly from its source, but the concentration of the active form drops off within about 100 μm.
Proliferation assay—To assay T cell proliferation, 0.5 μCi of 3H-thymidine was added to each well of 96-well plates 6 hr before termination of the cultures by freezing. Plates were then thawed, cells were harvested, and incorporated 3H-Tdr was assessed with a Wallac Microbeta scintillation counter (Perkin-Elmer, Waltham, MA).

CD4+ T cell blasts = assay: T cell blast proliferation in co-culture with MSCs (3H-thymidine incorporation); assay type: cell-based, mouse; settings: for induction of immunosuppression by MSCs with recombinant cytokines: 20 ng/ml each, MSC + T cell blasts or MSC + A1.1 cells, 1:20; for T cell proliferation after MSC treatment with low-concentration cytokines: 2 ng/ml each, 12 hr, then 1:20 MSC:T cells
Method: FIG. 1. is a graph showing that immunosuppression by MSCs is induced by proinflammatory cytokines. Cloned MSCs were supplemented with the indicated combinations of recombinant cytokines (20 ng/ml each) for 8 hours, then co-cultured with CD4+ T cell blasts at a 1:20 ratio (MSC:T cells), and proliferation assessed after an additional 8 hours. Values represent means±SD of five wells from a representative of three experiments with different clones. * p<0.001.
FIGS. 9A, 9B, 9C, 9D, 9E, 9F and 9G. (FIG. 9A). Cloned MSCs were first treated with the indicated combinations of recombinant cytokines IFNγ, TNFα, IL-17A (2 ng/ml each) for 12 hr, then cocultured with CD4^+ T cell blasts at a 1:20 ratio (MSC:T cells), and proliferation was assessed by 3H-thymidine incorporation after an additional 12 hr. (FIG. 9B). The mRNA expression of IL-17 receptor family members in MSCs or Raw 264.7 (Macrophages) were examined by RT-PCR. NC: No RT. (FIG. 9C). Surface expression of IL-17RA was detected by immunofluoresence or flow cytometry in cloned MSCs. (FIGS. 9D and 9E). MSCs were first treated with IFNγ and TNFα with or without IL-17A (10 ng/ml), IFNγ and TNFα were supplemented at different cytokine concentrations, for 12 hr, and then cocultured with CD4^+ T cell blasts (FIG. 9D) or T cell hybridoma A1.1 cells (FIG. 9E) at a ratio of 1:20 for 12 hr. T cell proliferation was measured by 3H-Tdr incorporation. (FIG. 9F). MSCs were first treated with IFNγ and TNFα (2 ng/ml) with graded concentrations of IL-17A, for 12 hr, and then cocultured with T cell hybridoma A1.1 cells at a ratio of 1:10 for 12 hr. T cell proliferation was measured by 3H-thymidine incorporation. (FIG. 9G). MSCs were cocultured with fresh C57BL/6 splenocytes plus anti-CD3, anti-CD28, and antibodies against IL-17A, at a 1:20 or 1:40 ratio (MSCs:splenocytes), for 48 hr, and then cell proliferation was assessed by 3H-thymidine incorporation. Proliferation values represent means±SEM of three wells from a representative of three experiments.
T cell blasts were generated from CD4^+ T cells purified by negative selection with […] T cell subset isolation kits (R&D Systems). Cells (1×10^6 cells/ml) were activated by plastic-bound anti-CD3 and soluble anti-CD 28 for 48 hours, then cultured with IL-2 (200 U/ml) alone for 48 hours. All T cell cultures were maintained in RPMI-1640 medium supplemented with 10% heat-inactivated FBS, 2 mM glutamine, 100 U/ml penicillin, 100 μ·g/ml streptomycin, and […] (complete medium).
Since most reported studies of immunosuppression by MSCs are based on their effects on T cell proliferation and cytokine production, the effect of MSCs was first examined on the IL-2-driven proliferation of T cell blasts. Fresh CD4^+ T cell blasts were generated from splenocytes by activation with anti-CD3 followed by expansion with IL-2 for several days (Devadas, et al. (2006) Immunity 25:237-247; Radvanyi, et al. (1996) Cell Immunol. 170:260-273). T cell blasts were added at a 1:20 ratio (MSC:T cells) along with IL-2 (200 U/ml). Cell proliferation was assessed by ^3H-Tdr incorporation after 8 hours. […] MSCs also had no effect on the proliferation of T hybridoma A1.1 cells. These T cells blasts and T hybridoma cells, however, produce no cytokines unless reactivated through the TCR (Fotedar, et al. (1985) J. Immunol. 135(5):3028-33). Thus, in the absence of T cell cytokines, MSCs were unable to suppress T cell proliferation.
The effect of IFNγ was then tested directly by adding isolated recombinant IFNγ (20 ng/ml) instead of activated splenocyte supernatant to the mixed co-cultures of MSC+ T cell blasts or MSC+A1.1 cells. […] Therefore, induction of the immunosuppressive function of MSCs by anti-CD3-activated splenocyte supernatant may be due to IFNγ acting in concert with either TNFα; IL-1α; or IL-1β on the MSCs. […]

F1 (C57BL/6xC3H) mice = assay: Graft-versus-host disease (GvHD) model
Method: Recipient mice (C57BL/6xC3H, F1) were lethally irradiated and injected i.v. with C57BL/6 bone marrow cells plus spleenocytes. On days 3 and 7 after bone marrow transplantation, recipients were administered with the indicated MSCs. For some wild-type MSC groups, L-NMMA, anti-IFNγ or a 3-antibody cocktail against TNFα, IL-1α, and IL-1β, (3 Abs) were injected i.p. Survival was monitored daily for 12 weeks.
GvHD Induction and Modulation by MSCs. C57BL/6×C3H F1 mice at 8-weeks old were lethally irradiated (13 Gy) and after 24 hours were infused by tail vein injection with nucleated bone marrow cells (5×10^6) and splenocytes (5×10^6) isolated from C57BL/6 parent mice. On days 3 and 7 following bone marrow transplantation, the recipients were administrated with 0.5×10^6 MSCs derived from C57BL/6 wild-type, IFNγ R1^−/−, or iNOS^−/− mice via the tail vein. Some wild-type MSC groups were also injected i.p. with the iNOS inhibitor, NG-monomethyl L-arginine (L-NMMA, 500 μg/mouse), anti-IFNγ (400 μg/mouse), or a cocktail of three antibodies against TNFα, IL-1α and IL-1β (200 μg each/mouse) daily for 7 days starting immediately after the first MSC administration. As negative controls, the F1 mice were injected with F1 bone marrow cells. Mice were observed daily for GvHD signs (wasting, ruffled hair, and hunched back) and euthanized upon becoming moribund, thus marking survival time. […]

iNOS = iNOS mRNA in MSCs by real-time PCR; assay type: cell-based, mouse; settings: 20 ng/ml each
Method: Real-Time PCR. RNA was isolated from cell pellets using an RNEASY Mini Kit. First-strand cDNA synthesis was performed using SENSISCRIPT RT Kit with random hexamer primers (all kits from Qiagen, Valencia, Calif.). mRNA of the genes of interest were quantified by real-time PCR (MX-4000 from Stratagene, La Jolla, Calif.) using SYBR Green Master Mix (Applied Biosystems, Foster City, Calif.). Total amount of mRNA was normalized to endogenous β-actin mRNA. Primers sequences for iNOS were: forward, 5′-CAGCTGGGCTGTACAAACCTT-3′ (SEQ ID NO:1); reverse, 5′-CATTGGAAGTGAAGCGTTTCG-3′ (SEQ ID NO:2). Other primers were from the RT2 PROFILER™ PCR Array Mouse Chemokines & Receptors kit (Superarray, Frederick, Md.).
Accordingly, it was contemplated that MSCs could upregulate their expression of iNOS and produce NO after exposure to these cytokines. […] […] At 12 hours post-stimulation, the level of iNOS mRNA was more than 7 times greater than β actin message, indicative of extremely high expression.

Cn1cc(CC(N)C(=O)O)c2ccccc21 (racemic) [1-MT, 1-methyl-DL-tryptophan]
effect on inhibition of peripheral blood mononuclear cell proliferation by human MSCs [1]: reversed
effect on immunosuppression by MSCs (splenocytes): no effect

GM-CSF: Granulocyte-macrophage colony-stimulating factor
induction of immunosuppression by MSCs with recombinant cytokines (CD4+ T cell blasts): no effect

CNC(=N)NCCC[C@H](N)C(=O)O [L-NMMA, N G-monomethyl-L-arginine]
effect on protection by MSC (histology) (F1 (C57BL/6xC3H) mice; 14 days after bone marrow transplantation): almost completely reversed
effect on MSC-mediated protection from GvHD (survival) (F1 (C57BL/6xC3H) mice; i.p. daily for 7 days after wild-type MSC infusion): significant reversal
splenocyte proliferation in MSC co-culture with iNOS inhibitor (splenocytes): completely restored
effect on immunosuppression by mouse MSCs (splenocytes; side-by-side comparison mouse and human MSCs): completely reversed

COC(=O)[C@@H](N)CCCNC(=N)N[N+](=O)[O-] [L-NAME]
splenocyte proliferation in MSC co-culture with iNOS inhibitor (splenocytes): same effect

COc1ccc2c(c1)c(CC(=O)O)c(C)n2C(=O)c1ccc(Cl)cc1 [indomethacin, Indomethacin]
effect on immunosuppression by MSCs (splenocytes): no effect

B1: IL-6: Interleukin-6 (protein, UniProt P08505 25-211, looked up)
Interleukin-6: FPTSQVRRGDFTEDTTPNRPVYTTSQVGGLITHVLWEIVEMRKELCNGNSDCMNNDDALAENNLKLPEIQRNDGCYQTGYNQEICLLKISSGLLEYHSYLEYMKNNLKDNKKDKARVLQRDTETLIHIFNQEVKDLHKIVLPTPISNALLTDKLESQKEWLRTKTIQFILKSLEEFLKVTLRSTRQT
induction of immunosuppression by MSCs with recombinant cytokines (CD4+ T cell blasts): no effect

B2: TNFα: recombinant mouse tumor necrosis factor-alpha (protein)
chain: LRSSSQNSSDKPVAHVVANHQVEEQLEWLSQRANALLANGMDLKDNQLVVPADGLYLVYSQVLFKGQGCPDYVLLTHTVSRFAISYQEKVNLLSAVKSPCPKDTPEGAELKPWYEPIYLGGVFQLEKGDQLSAEVNLPKYLDFAESGQVYFGVIAL
T cell proliferation after MSC treatment with low-concentration cytokines (CD4+ T cell blasts): cannot induce immunosuppression
iNOS mRNA upregulation in MSCs by recombinant cytokines (iNOS): ineffective

B3: IFNγ: recombinant mouse interferon-gamma (protein)
chain: HGTVIESLESLNNYFNSSGIDVEEKSLFLDIWRNWQKDGDMKILQSQIISFYLRLFEVLKDNQAISNNISVIESHLITTFFSNSKAKKDAFMSIAKFEVNNPQVQRQAFNELIRVVHQLLPESSLRKRKRSRC
T cell proliferation after MSC treatment with low-concentration cytokines (CD4+ T cell blasts): cannot induce immunosuppression
induction of immunosuppression by MSCs with recombinant cytokines (CD4+ T cell blasts): did not induce immunosuppression
iNOS mRNA upregulation in MSCs by recombinant cytokines (iNOS): ineffective

B4: IFNβ: type I IFN, printed as IFNα or β (protein, UniProt P01575 22-182, looked up)
Interferon beta: INYKQLQLQERTNIRKCQELLEQLNGKINLTYRADFKIPMEMTEKMQKSYTAFAIQEMLQNVFLVFRNNFSSTGWNETIVVRLLDELHQQTVFLKTVLEEKQEERLTWEMSSTALHLKSYYWRVQRYLKLMKYNSYAWMVVRAEIFRNFLIIRRLTRNFQN
MSC-mediated immunosuppression in MSC+splenocyte+anti-CD3 system (splenocytes): strikingly inhibited
